Values of other authors as cited in patent publication US20150190413A1, “COMPOSITIONS AND METHODS FOR THE TREATMENT OF BLADDER CANCER” (Endo Pharmaceuticals Solutions Inc., priority 2007, published 2015).
Like-named read-outs stand apart in the source and are kept apart here.

System: epithelium of the bladder
Settings: rabbit

C[S+](C)[O-] [DMSO, dimethyl sulfoxide]
Effect on epithelium of the bladder (five percent solutions of DMSO in water): sensitive | Effect on bladder cells (one hundred percent DMSO): fixed | Effect on epithelium of the bladder (twenty percent solutions of DMSO in water): loss of epithelial cells
